Measurements published in patent US20250230155A1 (Vanderbilt University, priority 2021, published 2025).

Target: T1, human mAChR M4 (Homo sapiens, UniProt P08173)
T1 construct: expressed in transfected cells
T1 sequence (P08173 1-479): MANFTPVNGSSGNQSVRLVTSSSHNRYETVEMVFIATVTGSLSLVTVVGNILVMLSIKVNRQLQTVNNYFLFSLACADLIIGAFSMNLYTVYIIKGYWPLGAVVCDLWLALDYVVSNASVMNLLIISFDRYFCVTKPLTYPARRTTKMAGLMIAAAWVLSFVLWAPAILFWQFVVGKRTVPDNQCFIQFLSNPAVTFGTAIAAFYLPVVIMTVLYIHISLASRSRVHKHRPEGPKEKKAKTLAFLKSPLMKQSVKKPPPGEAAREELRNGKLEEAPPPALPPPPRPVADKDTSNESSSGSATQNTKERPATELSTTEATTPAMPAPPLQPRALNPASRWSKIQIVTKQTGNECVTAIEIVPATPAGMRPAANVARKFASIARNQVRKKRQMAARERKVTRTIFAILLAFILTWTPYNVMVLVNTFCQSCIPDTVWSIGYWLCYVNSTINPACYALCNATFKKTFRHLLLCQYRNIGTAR
Test: mAChR M4 cell-based functional assay (calcium mobilization, CHO-K1 hM4-Gqi5 cells)
Details: for Emax at 30 µM: CHO-K1, % ACh maximum at 30 μM, human M4; for EC50: positive allosteric modulator activity, increase in the EC20 acetylcholine response, CHO-K1 hM4-Gqi5 cells, read-out: Human M4 EC50
Outline: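 Fluorescent calcium read-out (Fluo-4 AM, FDSS, 1 Hz) in hM4-Gqi5 CHO-K1 cells, 11-point 1:3 compound series. Agonism scored on compound addition, PAM activity as increase of the 144 s EC20 acetylcholine response, antagonism as decrease of the 230 s EC80 response; four-parameter logistic fits give EC50 and Emax.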

Structure (SMILES) | Emax at 30 µM [%] | EC50 [nM] | Emax (CHO-K1) [%]
Cc1cc(C#N)cnc1N1CCc2ncc(-c3cc(F)cc(F)c3C)cc2C1 [Example 597, 6-(3-(3,5-difluoro-2-methylphenyl)-7,8-dihydro-1,6-naphthyridin-6(5H)-yl)-5-methylnicotinonitrile] | 69 | 2870 | –
Cc1cc(C#N)nnc1N1CCc2ncc(Nc3ccncc3F)cc2C1 [Example 598, 6-(3-((3-fluoropyridin-4-yl)amino)-7,8-dihydro-1,6-naphthyridin-6(5H)-yl)-5-methylpyridazine-3-carbonitrile] | 98 | 25 | –
[2H]C1([2H])Cc2ncc(Nc3cc(C)ncc3F)cc2C([2H])([2H])N1c1nnc(C#N)c(C)c1C [Example 600, 6-(3-((5-fluoro-2-methylpyridin-4-yl)amino)-7,8-dihydro-1,6-naphthyridin-6(5H)-yl-5,5,7,7-d4)-4,5-dimethylpyridazine-3-carbonitrile] | 92 | 26 | –
[2H]C1([2H])Cc2ncc(Nc3cccnc3C)cc2C([2H])([2H])N1c1ncc(C#N)cc1C [Example 602, 5-methyl-6-(3-((2-methylpyridin-3-yl)amino)-7,8-dihydro-1,6-naphthyridin-6(5H)-yl-5,5,7,7-d4)nicotinonitrile] | 92 | 35 | –
[2H]C1([2H])Cc2ncc(Nc3cc(C)ncc3F)cc2C([2H])([2H])N1c1nnc(C#N)cc1C [Example 603, 6-(3-((5-fluoro-2-methylpyridin-4-yl)amino)-7,8-dihydro-1,6-naphthyridin-6(5H)-yl-5,5,7,7-d4)-5-methylpyridazine-3-carbonitrile] | 97 | 28 | –
[2H]C1([2H])Cc2ncc(Nc3cccnc3C)cc2C([2H])([2H])N1c1nnc(C#N)cc1C [Example 604, 5-methyl-6-(3-((2-methylpyridin-3-yl)amino)-7,8-dihydro-1,6-naphthyridin-6(5H)-yl-5,5,7,7-d4)pyridazine-3-carbonitrile] | 83 | 158 | –
Cc1ccc2c(n1)CCN(c1nnc(C#N)cc1C)C2 [Example 605, 5-methyl-6-(2-methyl-7,8-dihydro-1,6-naphthyridin-6(5H)-yl)pyridazine-3-carbonitrile] | – | 1440 | 106
[2H]C1([2H])Cc2ncc(Nc3ccncc3C)cc2C([2H])([2H])N1c1nnc(C#N)cc1C [Example 607, 5-methyl-6-(3-((3-methylpyridin-4-yl)amino)-7,8-dihydro-1,6-naphthyridin-6(5H)-yl-5,5,7,7-d4)pyridazine-3-carbonitrile] | 70 | 906 | –
[2H]C1([2H])Cc2ncc(Nc3ccncc3C)cc2C([2H])([2H])N1c1nnc(C#N)c(C)c1C [Example 609, 4,5-dimethyl-6-(3-((3-methylpyridin-4-yl)amino)-7,8-dihydro-1,6-naphthyridin-6(5H)-yl-5,5,7,7-d4)pyridazine-3-carbonitrile] | 56 | 753 | –
[2H]C1([2H])Cc2ncc(Nc3ccncc3C)cc2C([2H])([2H])N1c1ncc(C#N)cc1C [Example 610, 5-methyl-6-(3-((3-methylpyridin-4-yl)amino)-7,8-dihydro-1,6-naphthyridin-6(5H)-yl-5,5,7,7-d4)nicotinonitrile] | 70 | 59 | –
[2H]C1([2H])Cc2ncc(Nc3ccccc3F)cc2C([2H])([2H])N1c1ncc(C#N)cc1C [Example 612] | 91 | 24 | –
[2H]C1([2H])Cc2ncc(-c3ccnn3C)cc2C([2H])([2H])N1c1nnc(C#N)cc1C [Example 617, 5-methyl-6-(3-(1-methyl-1H-pyrazol-5-yl)-7,8-dihydro-1,6-naphthyridin-6(5H)-yl-5,5,7,7-d4)pyridazine-3-carbonitrile] | 88 | 2460 | –
Cc1cnccc1Nc1cnc2c(c1)CN(c1nnc(C#N)c(C)c1C)CC2 [Example 618, 4,5-dimethyl-6-(3-((3-methylpyridin-4-yl)amino)-7,8-dihydro-1,6-naphthyridin-6(5)-yl)pyridazine-3-carbonitrile] | 74 | 391 | –
Cc1cnccc1Nc1cnc2c(c1)CN(c1nnc(C#N)cc1C)CC2 [Example 619, 5-methyl-6-(3-((3-methylpyridin-4-yl)amino)-7,8-dihydro-1,6-naphthyridin-6(5H)-yl)pyridazine-3-carbonitrile] | 86 | 1020 | –
Cc1cnccc1Nc1cnc2c(c1)CN(c1ncc(C#N)cc1C)CC2 [Example 620, 5-methyl-6-(3-((3-methylpyridin-4-yl)amino)-7,8-dihydro-1,6-naphthyridin-6(5H)-yl)nicotinonitrile] | 96 | 72 | –
[2H]C1([2H])Cc2ncc(-c3c(C)noc3C)cc2C([2H])([2H])N1c1nnc(C#N)cc1C [Example 621, 6-(3-(3,5-dimethylisoxazol-4-yl)-7,8-dihydro-1,6-naphthyridin-6(5H)-yl-5,5,7,7-d4)-5-methylpyridazine-3-carbonitrile] | 85 | 318 | –
Cc1c(C#N)nnc(N2CCc3ncc(Nc4ccccc4Cl)cc3C2)c1C [compound 39, 6-[3-(2-chloroanilino)-7,8-dihydro-5H-1,6-naphthyridin-6-yl]-4,5-dimethyl-pyridazine-3-carbonitrile] | 73 | 239 | –
Cc1c(C#N)nnc(N2CCc3ncc(Nc4ccccc4N(C)C)cc3C2)c1C [compound 40, 6-[3-[2-(dimethylamino)anilino]-7,8-dihydro-5H-1,6-naphthyridin-6-yl]-4,5-dimethyl-pyridazine-3-carbonitrile] | 51 | 910 | –
Cc1c(C#N)nnc(N2CCc3ncc(Nc4ccccc4C#N)cc3C2)c1C [compound 41, 6-[3-(2-cyanoanilino)-7,8-dihydro-5H-1,6-naphthyridin-6-yl]-4,5-dimethyl-pyridazine-3-carbonitrile] | 46 | 483 | –
Cc1ccccc1Nc1cnc2c(c1)CN(c1nnc(C#N)c(C)c1C)CC2 [compound 42, 4,5-dimethyl-6-[3-(2-methylanilino)-7,8-dihydro-5H-1,6-naphthyridin-6-yl]pyridazine-3-carbonitrile] | 80 | 483 | –

Now those with a lower EC50, led by results:

Emax at 30 µM [%] | EC50 [nM] | Structure (SMILES) | Emax (CHO-K1) [%]
96 | 7 | Cc1cc(C#N)cnc1N1CCc2ncc(Nc3ccncc3F)cc2C1 [Example 599, 6-(3-((3-fluoropyridin-4-yl)amino)-7,8-dihydro-1,6-naphthyridin-6(5H)-yl)-5-methylnicotinonitrile] | –
95 | 7 | [2H]C1([2H])Cc2ncc(Nc3cc(C)ncc3F)cc2C([2H])([2H])N1c1ncc(C#N)cc1C [Example 601, 6-(3-((5-fluoro-2-methylpyridin-4-yl)amino)-7,8-dihydro-1,6-naphthyridin-6(5H)-yl-5,5,7,7-d4)-5-methylnicotinonitrile] | –
90 | 10 | [2H]C1([2H])Cc2ncc(Nc3ccncc3F)cc2C([2H])([2H])N1c1nnc(C#N)cc1C [Example 606, 6-(3-((3-fluoropyridin-4-yl)amino)-7,8-dihydro-1,6-naphthyridin-6(5H)-yl-5,5,7,7-d4)-5-methylpyridazine-3-carbonitrile] | –
83 | 4 | [2H]C1([2H])Cc2ncc(Nc3ccncc3F)cc2C([2H])([2H])N1c1nnc(C#N)c(C)c1C [Example 608, 6-(3-((3-fluoropyridin-4-yl)amino)-7,8-dihydro-1,6-naphthyridin-6(5H)-yl-5,5,7,7-d4)-4,5-dimethylpyridazine-3-carbonitrile] | –
86 | 8 | [2H]C1([2H])Cc2ncc(Nc3ccccc3F)cc2C([2H])([2H])N1c1nnc(C#N)cc1C [Example 611, 6-(3-((2-fluorophenyl)amino)-7,8-dihydro-1,6-naphthyridin-6(5H)-yl-5,5,7,7-d4)-5-methylpyridazine-3-carbonitrile] | –
97 | 3 | Cc1c(C#N)nnc(N2CCc3ncc(Nc4ccncc4F)cc3C2)c1C [Example 613, 6-(3-((3-fluoropyridin-4-yl)amino)-7,8-dihydro-1,6-naphthyridin-6(5H)-yl)-4,5-dimethylpyridazine-3-carbonitrile] | –
92 | 12 | Cc1cc(Nc2cnc3c(c2)CN(c2nnc(C#N)c(C)c2C)CC3)c(F)cn1 [Example 614, 6-(3-((5-fluoro-2-methylpyridin-4-yl)amino)-7,8-dihydro-1,6-naphthyridin-6(5H)-yl)-4,5-dimethylpyridazine-3-carbonitrile] | –
89 | 11 | Cc1cc(Nc2cnc3c(c2)CN(c2nnc(C#N)cc2C)CC3)c(F)cn1 [Example 615, 6-(3-((5-fluoro-2-methylpyridin-4-yl)amino)-7,8-dihydro-1,6-naphthyridin-6(5H)-yl)-5-methylpyridazine-3-carbonitrile] | –
95 | 4 | Cc1cc(Nc2cnc3c(c2)CN(c2ncc(C#N)cc2C)CC3)c(F)cn1 [Example 616, 6-(3-((5-fluoro-2-methylpyridin-4-yl)amino)-7,8-dihydro-1,6-naphthyridin-6(5H)-yl)-5-methylnicotinonitrile] | –
